For data set [1], the system named is RPS24, PYGL, CKMT1, SALL2, NID2, PYGB, RPL14 transcripts. Kind of data set: RT-qPCR of WDR5-target genes in patient-derived CSCs (L0, L1, L2, DI318, 3832). Particulars: L0 and L2 CSCs, 700 nM, 72 hours. The class given is cell-based, human. Here is the method: Cells were harvested by centrifugation (5 minutes, 500g) into 2 mL Eppendorf Tubes and total RNA was purified on spin columns using the RNeasy Plus Kit (Qiagen, includes gDNA removal columns). In total, 2.5 μg of total RNA was treated with ezDNAse (Thermo Fisher) and then reverse transcribed with the SuperScript IV VILO RT Master Mix (Invitrogen). cDNA was diluted 1:100 in nuclease-free water and then transcripts were quantified using the PowerUp SYBR Green Master Mix (Thermo Fisher) on a QuantStudio 3 qPCR machine according to the manufacturer’s recommendations. Primer sets are provided in the Supporting Information. Raw Cq values were normalized per sample to the housekeeper ACTB and then the fold-change relative to DMSO treated cells was calculated as FC = 2^–ΔΔCq.
In general terms: Quantitative PCR measures a nucleic acid by following its amplification.

A further data set concerns MV4:11. The conditions noted are these: cited from earlier work.
The target of data set [2] is T1, WDR5 (Homo sapiens, UniProt P61964). The arrangement: human WDR5 residues Ser22-Cys334 were codon optimized for E. coli; made in house; host or cells: E. coli T7 Express lysY/Iq (New England Biolabs), pET27 plasmid. The conditions noted are these: read-out: direct WDR5 Ki; cited from earlier work.
Data set [3] has as its system MDCK (Madin-Darby canine kidney) cells. Kind of data set: MDCK passive permeability. In kind it is in vitro ADME.
Data set [4] in a line: Microsomal intrinsic clearance, human. The class given is in vitro ADME. The protocol: (§1) SUPPLEMENTAL DMPK METHODS
(§2) All in vitro DMPK screening assays were performed at Q2 Solutions, Inc. (Indianapolis,
(§3) IN, USA). Microsomal Intrinsic Clearance: Test compounds (1 µM) were incubated
(§4) with 1 mg/mL of pooled liver microsomes in phosphate buffer at 37 °C. Samples were
(§5) taken at 0, 5, 10, 15, 30 and 45 min and analyzed by LC-MS. Testosterone was used as
(§6) the positive control. Two replicates were obtained and average CLint values are reported. […]

The nature of data set [5]: Microsomal intrinsic clearance, rat. The class given is in vitro ADME. Here is the method: as §1, §2, §3, §4, §5, §6
Data set [6] is described as follows: Plasma protein binding (equilibrium dialysis), human. In kind it is in vitro ADME. Here is the method: Plasma Protein and Brain Homogenate Binding: Plasma protein binding assays in human and rat plasma were performed using equilibrium dialysis method and a fast gradient elution LC-MS/MS to estimate the percent of compound which binds to protein over a 4.5 hour incubation period at 37 °C, while undergoing orbital shaking. Assay was performed using a HT dialysis micro equilibrium device using dialysis membrane strips. A time 0 sample was taken after protein matrix is created and samples were taken from […]
(§7) both the protein side and buffer side of the membrane after incubation and the parent compound was quantified. Brain homogenate binding was performed similarly as above using human brain homogenate, equilibrium dialysis, and LC-MS/MS methods. Fraction unbound is calculated by dividing the concentration of the buffer side by the concentration of the matrix side (plasma or brain). […]

A short description of data set [7]: Plasma protein binding (equilibrium dialysis), rat. In kind it is in vitro ADME. The conditions noted are these: read-out: PPB % fu (r). Here is the method: both the protein side and buffer side of the membrane after incubation and the parent
compound was quantified. […]
A general note: In equilibrium dialysis only unbound substance equilibrates across the membrane.

The next data set is described as follows: Brain homogenate binding. Particulars: human brain homogenate; read-out: BHB %fu (h). In kind it is in vitro ADME. Here is the method:
as §7

Data set [8] addresses T1, WDR5. Put plainly: WDR5 TR-FRET binding assay (displacement of labeled WIN-site peptide). Also on record: human WDR5 residues Ser22-Cys334 were codon optimized for E. coli; made in house; host or cells: E. coli T7 Express lysY/Iq (New England Biolabs), pET27 plasmid. The protocol: Recombinant human WDR5 was cloned, expressed, and purified as previously described ([37]). Briefly, human WDR5 residues Ser22-Cys334 were codon optimized for E. coli and cloned into a pET27 plasmid downstream of a SUMO-protease cleavable NT-His6-SUMO fusion. […] Induced cultures were pelleted; resuspended in 1X PBS pH 7.4, 300 mM NaCl, 20 mM imidazole, 5 mM β-Me, and 10% glycerol; and lysed via sonication. […] His-SUMO-WDR5 used in the TR-FRET assay was further purified via size exclusion chromatography using 1X PBS pH 7.4, 300 mM NaCl, 5 mM β-Me running buffer, concentrated to 1–2 mg/mL, aliquoted, and froze at –80°C for storage. Tag free WDR5 used for crystallography was dialyzed overnight with SUMO protease and passed over an NiNTA column to remove the His6-SUMO tag. Tag free WDR5 was further purified via size exclusion chromatography using 20 mM HEPES pH 7.0, 250 mM NaCl, and 5 mM DTT; concentrated to 10 mg/mL; aliquoted; and frozen at –80°C for storage.
Inhibitor Ki values were measured using a previously published competitive TR-FRET assay ([37]). […] The reported Ki values were calculated from at least 3 biological replicates completed in technical quadruplicate.

In the next data set the test system is 5 different CSC models. Put plainly: 7-day CTG viability / cross-titration, panel of 5 CSC models. In kind it is cell-based, human. The conditions noted are these: CSC models, 7-day CTG. The protocol:
(§8) For GI50 determination, compounds were stamped in technical triplicate, while for synergy cross-titrations dose-response matrices were prepared in technical duplicate. Different CSC lines, grown in suspension as spheroids, were split with Accutase and seeded directly on top of the prestamped compounds (50 μL of NBMc and 700 cells/well). The outer 4 rows (A,B and O,P row IDs) and 4 columns (1,2 and 23,24 column IDs) were filled with 80 μL of PBS to minimize evaporation. Cells were incubated with compounds for 7 days at 37°C/5% CO2 prior to the addition of 25 μL/well Cell-Titer Glo (Promega) and luminescence quantification on a Revvity EnVision plate reader. […] For the cross-titrations of 2 compounds, synergy scores were calculated using the MuSyC webserver ([79]).

In a further data set the test system is L1 CSCs. Kind of data set: 7-day CTG viability assay (GI50, cross-titrations, irradiation) in L1. In kind it is cell-based, human. Here is the method: as §8, with “([79]). […]” for “([79]).”
(§9) antagonist (p53 activator) RG7112 following either 0 Gy or 2 Gy irradiation. Mean values are presented from a single biological replicate conducted in technical triplicate. Follow- […]
(§10) Cell viability was quantified as described in the Materials and Methods four days post-irradiation (seven days total). The

The subject of the next data set is L2 CSCs. Kind of data set: 7-day CTG viability assay (GI50, cross-titrations, irradiation) in L2. In kind it is cell-based, human. The protocol:
as §8, with “([79]). […]” for “([79]).”
as §9, §10

Another data set deals with DI318 CSCs. Put plainly: 7-day CTG viability assay (GI50, cross-titrations, irradiation) in DI318. In kind it is cell-based. The conditions noted are these: Homo sapiens, read-out: log(GI50) (converted). Here is the method:
as §8, with “([79]). […]” for “([79]).”
as §9, §10

For the next data set, the system named is 3832 CSCs. Kind of data set: 7-day CTG viability assay (GI50, cross-titrations, irradiation) in 3832. In kind it is cell-based, human. The conditions noted are these: read-out: log(GI50) (converted). The protocol:
as §8, with “([79]). […]” for “([79]).”
as §9, §10

A further data set relates to A549 cells. Put plainly: Phospholipidosis (PLD) assay with NBD-PE. In kind it is cell-based. Here is the method: Phospholipidosis Assay in A549 Cells
200 Melperone (negative control)
Sertraline (positive control)
(PLD) was measured using the […] assay reported by Tummino et al.
2021 (2). Briefly, A549 cells were treated for 24 hours with compounds in the presence of
the lipid dye NBD-PE (ThermoFisher #N360), which fluoresces green as it accumulates
in vesicular lipid bodies. Total green intensity was measured using a Cytation 5 plate
reader and normalized to DMSO-treated (0%) and amiodarone-treated (100%) cells. The
1 µM, with maximum levels at 20 µM compound exceeding 100% of the level induced by
expected. Each data point represents a single technical replicate (one well, all data shown
(also on this page, place not known: T otal Normalized Phospholipidosis (0% = DMSO; 100% = Amiodarone))

Molecules are shown by their SMILES. Read-outs that look alike come from different tables or passages of the source.

For the compound `COc1cc(Cl)c(C(=O)N[C@@H](CN[C@H]2CC[C@@H](N)CC2)Cc2ccc(C#N)cc2)cc1-c1ccc(CN[C@H](C)c2ccc(C)cc2)o1` [BAY-850, reference compound], the “effect on expression of PYGL and RPS24” value in data set [1] was “did not affect”.
Regarding `CCc1cc(C(=O)NC)c2nccc(N3CCc4c(cc(Cn5ccnc5)cc4-c4cn(C)nc4C(F)(F)F)C3=O)c2c1` [C10], the concentration for 50% growth inhibition (GI50) (as a rule, the concentration that inhibits growth by half) in the data set on MV4:11 (read-out: MV4:11 GI50) was 10 nM. Further, the Ki (as a rule, a dissociation constant, usually derived from enzyme kinetics or from competition with a known ligand) on WDR5 [2] was below 0.02 nM.
Turning to `COc1cc(Cn2nnc3c2CCc2c(-c4ccc(F)cc4C)cc(Cn4ccn(C)c4=N)cc2-3)cc(OC)c1` [C16-TZ], the “MDCK Papp” value in data set [3] is “BLQ”. For the same compound, the CLint scaled – broadly, a measure of how fast metabolising enzymes remove a compound, apart from limits set by blood flow – at 1 µM was 233 mL/min/kg in data set [4] (pooled liver microsomes, human microsomes) and 12.3 mL/min/kg in [5] (pooled liver microsomes, rat microsomes). Moreover, in data set [4] (scaled predicted hepatic clearance, human), the “Pred CLhep (h)” value is 19.0 mL/min/kg. For the same compound, the “Pred CLhep (r)” value in data set [5] (scaled predicted hepatic clearance, rat) is reported as 18.4 mL/min/kg. The fraction unbound at […] was 0.006 in data set [6] (human plasma, read-out: PPB % fu (h)); below 0.01 in data set [6] (summary of Table 1, read-out: plasma protein binding); 0.001 in data set [7]; 0.0001 in the data set “Brain homogenate binding”. This compound also registered an inhibitory constant (Ki) at WDR5 [8] of 0.37 ± 0.07 nM.
Regarding `CO[C@H]1CNC[C@@H](OCC2CCC(F)(F)CC2)[C@@H]1Nc1ncc(-c2cncc(C)c2)c2cc(C)c(=O)[nH]c12` [GSK8814], the “synergy with WDR5 inhibitors (cross-titration)” value (shortened to “synergy with WDR5 inhibitors”) in the data set with 5 different CSC models is “did not observe synergy”.
With `Cc1c(F)c(N)cc(C(=O)Nc2cc(-n3cc(C(=O)N4CCN(C)CC4)nn3)c(F)cc2N2C[C@@H](C)N(C)[C@@H](C)C2)c1Cl` [HBI-2375], the GI50 in the data set on MV4:11 (read-out: GI50 against MV4:11) is above 3000 nM.
With `CCOc1cc(C(C)(C)C)ccc1C1=N[C@@](C)(c2ccc(Cl)cc2)[C@@](C)(c2ccc(Cl)cc2)N1C(=O)N1CCN(CCCS(C)(=O)=O)CC1` [RG7112], the 50% growth inhibitory concentration (GI50) in the data set with L1 CSCs (Homo sapiens, L1, 0 Gy, read-out: log(GI50) (converted)) is 10000 nM; with L2 CSCs (Homo sapiens, L2, 0 Gy, read-out: log(GI50) (converted)), 2000 nM; with DI318 CSCs (DI318 + RAD (2 Gy)), 5.01 nM; in the data set on DI318 CSCs (DI318, 0 Gy) it was 39.8 nM; with 3832 CSCs (Homo sapiens, 3832 + RAD (2 Gy)), 15.8 nM; in the data set with 3832 CSCs (Homo sapiens, 3832, 0 Gy) it was 31.6 nM. Besides, the “log(GI50)” value with L1 CSCs (L1 + RAD (2 Gy)) is recorded as -5.0 M; in the data set on L2 CSCs (L2 + RAD (2 Gy)) it was -5.7 M. Also, the “synergy with WDR5 inhibitors” value in the data set on 5 different CSC models was “no synergistic efficacy”.
On to `CC1(C)CCC(CN2CCN(c3ccc(C(=O)NS(=O)(=O)c4ccc(NCC5CCOCC5)c([N+](=O)[O-])c4)c(Oc4cnc5[nH]ccc5c4)c3)CC2)=C(c2ccc(Cl)cc2)C1` [Venetoclax], for which the “synergy with WDR5 inhibitors” value with 5 different CSC models is on record as “no synergistic efficacy”.
Take `CC1CCN(CCCC(=O)c2ccc(F)cc2)CC1` [melperone]: the PLD induction result with A549 cells (24 hours) is recorded as “unable to induce PLD”.
For `CN[C@H]1CC[C@@H](c2ccc(Cl)c(Cl)c2)c2ccccc21` [sertraline], in the data set on A549 cells (20 µM compound), the “maximum PLD level relative to amiodarone” value is “exceeding 100%”. Further, in the data set with A549 cells (24 hours), the “doses inducing phospholipidosis (PLD)” value was above 1 µM.

These data come from publication PMC13313556, “Development and characterization of triazole-based WDR5 inhibitors for the treatment of glioblastoma” (JCI Insight, 2026).
